One assay deals with Reverse transcriptase protein (Human immunodeficiency virus 1, UniProt Q9WJQ2). Kind of assay: Inhibition of HIV1 reverse transcriptase K103N mutant by HeLa-MAGI assay.
Consider `Cc1c(C(C)(C)C)s/c(=N\S(=O)(=O)c2cccc([N+](=O)[O-])c2)n1C` [3-substituted thiazolidene deriv. 17a], for which the IC50 (usually the concentration needed to halve the response being measured) was 12900 nM.

Target in the next assay: not listed separately
Kind of assay: Inhibition of HIV1 reverse transcriptase K103N mutant by HeLa-MAGI assay.
As to `Cc1cc(OCCCNC(N)=O)ccc1NC(=O)COc1ccc(Cl)cc1C(=O)c1cc(F)cc(C(F)(F)F)c1`, half-maximal inhibition (IC50) required 4 nM.

Regarding `Cc1ccccc1NC(=O)COc1ccc(Cl)cc1C(=O)c1cc(F)cc(F)c1`, the midpoint of inhibition, the IC50, lay at 38 nM.

`Cc1[nH]/c(=N/S(=O)(=O)c2cccc([N+](=O)[O-])c2)sc1C(C)(C)C` had an IC50 of 32400 nM.

`Cc1cc(S(N)(=O)=O)ccc1NC(=O)COc1ccc(Cl)cc1C(=O)c1cc(C#N)cc(C(F)(F)F)c1` gave an IC50 of 1.1 nM.

`Cc1cc(Cl)cc(C(=O)c2cc(Cl)ccc2OCC(=O)Nc2ccc(S(N)(=O)=O)cc2C)c1`: the 50% inhibitory concentration (IC50) is 3.6 nM.

In the case of `Cc1cc(S(N)(=O)=O)ncc1NC(=O)COc1ccc(Cl)cc1C(=O)c1cc(Cl)cc(C#N)c1`, inhibition was half-maximal at 5 nM (IC50).

For the molecule `Cc1cc(C#N)cc(C(=O)c2cc(Cl)ccc2OCC(=O)Nc2cnc(S(N)(=O)=O)cc2C)c1`, the IC50 stood at 7.1 nM. This IC50 and that of the molecule before are within 1.5-fold of each other.

Consider `Cc1cc(C#N)cc(C(=O)c2cc(Cl)ccc2OCC(=O)Nc2ccc(S(N)(=O)=O)nc2C)c1`, for which the IC50 stood at 6 nM.

With `COc1ccc(NC(=O)COc2ccc(Cl)cc2C(=O)c2cc(F)cc(F)c2)cn1`, half-maximal inhibition (IC50) was put at 72 nM.

Consider `COCCOCCOc1ccc(NC(=O)COc2ccc(Cl)cc2C(=O)c2cc(F)cc(C(F)(F)F)c2)c(C)c1`, for which the IC50 came out at 16 nM.

As for `Cc1cc(NC(=O)CCN2CCOCC2)ccc1NC(=O)COc1ccc(Cl)cc1C(=O)c1cc(F)cc(F)c1`, the IC50 came out at 8.9 nM.

Consider `CCN(CC)CCCNc1ccc(NC(=O)COc2ccc(Cl)cc2C(=O)c2cc(F)cc(F)c2)c(C)c1`, for which inhibition was half-maximal at 95 nM (IC50).

The molecule `Cc1cc(S(=O)(=O)N(C)C)ccc1NC(=O)COc1ccc(Cl)cc1C(=O)c1cc(F)cc(C(F)(F)F)c1` came in with a half-maximal inhibitory concentration (IC50) of 6 nM. This IC50 lies about 16-fold lower than the previous one.

`Cc1cc(N2CC[S+]([O-])CC2)ccc1NC(=O)COc1ccc(Cl)cc1C(=O)c1ccc(C#N)cc1` displayed an IC50 of 44 nM.

Consider `Cc1cc(N2CC[S+]([O-])CC2)ccc1NC(=O)COc1ccc(Cl)cc1C(=O)c1ccccc1`, for which the IC50 came out at 100 nM.

Turning to `COc1cc(OC)cc(C(=O)c2cc(Cl)ccc2OCC(=O)Nc2ccc(S(N)(=O)=O)cc2C)c1`, half-maximal inhibition (IC50) required 372 nM.

Take `Cc1cc(C#N)cc(C(=O)c2cc(Cl)ccc2OCC(=O)Nc2ccc(S(N)(=O)=O)cc2C)c1`: the IC50 worked out at 0.891 nM.

In turn, `Cc1cc(S(N)(=O)=O)ccc1NC(=O)COc1ccc(Cl)cc1C(=O)c1cncc(C#N)c1` gave a half-inhibitory concentration (IC50) of 141 nM.

In the case of `Cc1cc(NCCCn2ccnc2)ccc1NC(=O)COc1ccc(Cl)cc1C(=O)c1cc(F)cc(F)c1`, the IC50 is 158 nM.

In the case of `Cc1cc(NCCCN2CCCC2)ccc1NC(=O)COc1ccc(Cl)cc1C(=O)c1cc(F)cc(F)c1`, inhibition was half-maximal at 110 nM (IC50).

Consider `Cc1cc(C)cc(C(=O)c2cc(Cl)ccc2OCC(=O)Nc2ccc(S(N)(=O)=O)cc2C)c1`, for which the IC50 is 3.3 nM.

`O=C(COc1ccc(Cl)cc1C(=O)c1cc(F)cc(F)c1)Nc1ccc(Cl)nc1` displayed an IC50 of 68 nM.

`Cc1nc(S(N)(=O)=O)ccc1NC(=O)COc1ccc(Cl)cc1C(=O)c1cc(Cl)cc(C#N)c1` registered an IC50 of 3 nM.

Take `CNS(=O)(=O)c1ccc(NC(=O)COc2ccc(Cl)cc2C(=O)c2cc(F)cc(C(F)(F)F)c2)c(C)c1`: the IC50 stood at 2 nM.

Consider `Cc1cc(S(N)(=O)=O)ccc1NC(=O)COc1ccc(Cl)cc1C(=O)c1cc(Cl)cc(Br)c1`, for which half-maximal inhibition (IC50) required 6.2 nM.

For `Cc1cc(S(N)(=O)=O)ccc1NC(=O)COc1ccc(Cl)cc1C(=O)c1cccc(C#N)c1`, the IC50 was 1.5 nM.

Consider `Cc1cc(N2CC[S+]([O-])CC2)ccc1NC(=O)COc1ccc(Cl)cc1C(=O)c1ccccc1C#N`, for which the IC50 amounted to 155 nM.

Turning to `Cc1cc(S(N)(=O)=O)ccc1NC(=O)COc1ccc(Cl)cc1C(=O)c1cc(Br)cc(C(F)(F)F)c1`, the IC50 turned out to be 93 nM.

For `Cc1cc(N2CC[S+]([O-])CC2)ccc1NC(=O)COc1ccc(Cl)cc1C(=O)c1cccc(C#N)c1`, 5 nM corresponded to half-maximal inhibition (IC50). Compared with the last molecule, the IC50 is about 19-fold lower.

On to `Cc1cc(C#N)cc(C(=O)c2cc(Cl)ccc2OCC(=O)Nc2ncc(S(N)(=O)=O)cc2C)c1`, for which half-maximal inhibition (IC50) required 93 nM.

In turn, `Cc1c(C(C)(C)C)s/c(=N\S(=O)(=O)c2cc(Cl)ccc2N)n1C` [2-amino-N-[(2Z)-5-tert-butyl-3,4-dimethyl-2,3-dihydro-1,3-thiazol-2-ylidene]-5-chlorobenzene-1-sulfonamide] gave an IC50 of 15800 nM.

Take `Cc1c(C(C)C)s/c(=N\S(=O)(=O)c2cc(Br)ccc2C#N)n1C` [5-Bromo-2-cyano-N-(5-isopropyl-3,4-dimethyl-1,3-thiazol-2(3H)-ylidene)benzenesulfonamide]: the half-inhibitory concentration (IC50) came to 3980 nM.

`CC(C)c1s/c(=N\S(=O)(=O)c2cc(Cl)ccc2C#N)n(C)c1Cl` [5-Chloro-N-(4-chloro-5-isopropyl-3-methyl-1,3-thiazol-2(3H)-ylidene)-2-cyanobenzenesulfonamide] registered an IC50 of 3980 nM.

Molecule `CC(C)c1s/c(=N\S(=O)(=O)c2cc(Br)ccc2O)n(C)c1Cl` [5-bromo-N-[(2Z)-4-chloro-3-methyl-5-(propan-2-yl)-2,3-dihydro-1,3-thiazol-2-ylidene]-2-hydroxybenzene-1-sulfonamide] came in with an IC50 of 40 nM.

Consider `Cc1c(C(C)C)s/c(=N\S(=O)(=O)c2cc(Cl)ccc2C#N)n1C` [5-chloro-2-cyano-N-[(2Z)-3,4-dimethyl-5-(propan-2-yl)-2,3-dihydro-1,3-thiazol-2-ylidene]benzene-1-sulfonamide], for which the IC50 was determined as 6310 nM.

Molecule `CC(C)c1s/c(=N\S(=O)(=O)c2cc(Cl)ccc2O)n(C)c1Cl` [5-chloro-N-[(2Z)-4-chloro-3-methyl-5-(propan-2-yl)-2,3-dihydro-1,3-thiazol-2-ylidene]-2-hydroxybenzene-1-sulfonamide] gave an IC50 of 158 nM.

As for `Cc1cc(OCCCS(N)(=O)=O)ccc1NC(=O)COc1ccc(Cl)cc1C(=O)c1cc(F)cc(C(F)(F)F)c1` [GW3011], 4 nM corresponded to half-maximal inhibition (IC50).

With `Cc1cc(S(N)(=O)=O)ccc1NC(=O)COc1ccc(Cl)cc1C(=O)c1cc(F)cc(C(F)(F)F)c1` [GW4511], the midpoint of inhibition, the IC50, lay at 2 nM.

`Cc1cc(S(N)(=O)=O)ccc1NC(=O)COc1ccc(Cl)cc1C(=O)c1cc(Cl)cc(C#N)c1` [GW678248] came in with an IC50 of 1 nM.

Consider `Cc1c(C(C)C)s/c(=N\S(=O)(=O)c2cccc([N+](=O)[O-])c2)n1C` [N-(3,4-Dimethyl-5-isopropyl-1,3-thiazol-2(3H)-ylidene)-3-nitrobenzenesulfonamide], for which half-maximal inhibition (IC50) required 20000 nM.

Take `C=Cc1s/c(=N\S(=O)(=O)c2cccc([N+](=O)[O-])c2)n(C)c1C` [N-(3,4-Dimethyl-5-vinyl-1,3-thiazol-2(3H)-ylidene)-3-nitrobenzenesulfonamide]: the IC50 worked out at 6170 nM.

Molecule `CC(C)c1s/c(=N\S(=O)(=O)c2cc(C#N)ccc2C#N)n(C)c1Cl` [N-(4-Chloro-5-isopropyl-3-methyl-1,3-thiazol-2(3H)-ylidene)-2,5-dicyanobenzenesulfonamide] yielded an IC50 of 3020 nM.

Regarding `Cc1c(C(C)(C)C)s/c(=N\S(=O)(=O)c2cc(Cl)ccc2O)n1C` [N-(5-tert-Butyl-3,4-dimethyl-1,3-thiazol-2(3H)-ylidene)-5-chloro-2-hydroxybenzenesulfonamide], the IC50 stood at 1000 nM.

Molecule `CC(C)c1s/c(=N\S(=O)(=O)c2cccc([N+](=O)[O-])c2)n(C)c1C(F)(F)F` [N-[(2Z)-3-methyl-5-(propan-2-yl)-4-(trifluoromethyl)-2,3-dihydro-1,3-thiazol-2-ylidene]-3-nitrobenzene-1-sulfonamide] yielded an IC50 of 41700 nM.

Regarding `CCc1s/c(=N\S(=O)(=O)c2cccc([N+](=O)[O-])c2)n(C)c1C` [N-[(2Z)-5-ethyl-3,4-dimethyl-2,3-dihydro-1,3-thiazol-2-ylidene]-3-nitrobenzene-1-sulfonamide], inhibition was half-maximal at 6310 nM (IC50).

With `Cc1c(C(C)(C)C)s/c(=N\S(=O)(=O)c2ccccc2O)n1C` [N-[(2Z)-5-tert-butyl-3,4-dimethyl-2,3-dihydro-1,3-thiazol-2-ylidene]-2-hydroxybenzene-1-sulfonamide], half-maximal inhibition (IC50) required 31600 nM.

On to `Cc1c(C(C)(C)C)s/c(=N\S(=O)(=O)c2cccc(Cl)c2)n1C` [N-[(2Z)-5-tert-butyl-3,4-dimethyl-2,3-dihydro-1,3-thiazol-2-ylidene]-3-chlorobenzene-1-sulfonamide], for which inhibition was half-maximal at 10000 nM (IC50). Against the preceding molecule, the IC50 is about 3.2-fold lower.

The molecule `CC(C)c1s/c(=N\S(=O)(=O)c2cccc([N+](=O)[O-])c2)n(C)c1Cl` [thiazolidenebenzenesulfonamide deriv. 17k] registered an IC50 of 6920 nM.

In turn, `Cc1c(C(C)C)s/c(=N\S(=O)(=O)c2cc(C#N)ccc2C#N)n1C` [thiazolidenebenzenesulfonamide deriv.] registered a 50% inhibitory concentration (IC50) of 3980 nM. This IC50 is about 1.7-fold lower than that of the molecule before.

Values taken from BindingDB's records for doi:10.1016/j.bmcl.2007.11.134 (Korea Institute of Science and Technology, 2008).
